We go through 16 molecules from patent publication US9884828B2, “Substituted cinnolines as inhibitors of LRRK2 kinase activity” (Imago Pharmaceuticals, Inc., priority 2011, dated 2018).

Sequence of recombinant GST-LRRK2 (wild-type) (Q5S007 whole entry): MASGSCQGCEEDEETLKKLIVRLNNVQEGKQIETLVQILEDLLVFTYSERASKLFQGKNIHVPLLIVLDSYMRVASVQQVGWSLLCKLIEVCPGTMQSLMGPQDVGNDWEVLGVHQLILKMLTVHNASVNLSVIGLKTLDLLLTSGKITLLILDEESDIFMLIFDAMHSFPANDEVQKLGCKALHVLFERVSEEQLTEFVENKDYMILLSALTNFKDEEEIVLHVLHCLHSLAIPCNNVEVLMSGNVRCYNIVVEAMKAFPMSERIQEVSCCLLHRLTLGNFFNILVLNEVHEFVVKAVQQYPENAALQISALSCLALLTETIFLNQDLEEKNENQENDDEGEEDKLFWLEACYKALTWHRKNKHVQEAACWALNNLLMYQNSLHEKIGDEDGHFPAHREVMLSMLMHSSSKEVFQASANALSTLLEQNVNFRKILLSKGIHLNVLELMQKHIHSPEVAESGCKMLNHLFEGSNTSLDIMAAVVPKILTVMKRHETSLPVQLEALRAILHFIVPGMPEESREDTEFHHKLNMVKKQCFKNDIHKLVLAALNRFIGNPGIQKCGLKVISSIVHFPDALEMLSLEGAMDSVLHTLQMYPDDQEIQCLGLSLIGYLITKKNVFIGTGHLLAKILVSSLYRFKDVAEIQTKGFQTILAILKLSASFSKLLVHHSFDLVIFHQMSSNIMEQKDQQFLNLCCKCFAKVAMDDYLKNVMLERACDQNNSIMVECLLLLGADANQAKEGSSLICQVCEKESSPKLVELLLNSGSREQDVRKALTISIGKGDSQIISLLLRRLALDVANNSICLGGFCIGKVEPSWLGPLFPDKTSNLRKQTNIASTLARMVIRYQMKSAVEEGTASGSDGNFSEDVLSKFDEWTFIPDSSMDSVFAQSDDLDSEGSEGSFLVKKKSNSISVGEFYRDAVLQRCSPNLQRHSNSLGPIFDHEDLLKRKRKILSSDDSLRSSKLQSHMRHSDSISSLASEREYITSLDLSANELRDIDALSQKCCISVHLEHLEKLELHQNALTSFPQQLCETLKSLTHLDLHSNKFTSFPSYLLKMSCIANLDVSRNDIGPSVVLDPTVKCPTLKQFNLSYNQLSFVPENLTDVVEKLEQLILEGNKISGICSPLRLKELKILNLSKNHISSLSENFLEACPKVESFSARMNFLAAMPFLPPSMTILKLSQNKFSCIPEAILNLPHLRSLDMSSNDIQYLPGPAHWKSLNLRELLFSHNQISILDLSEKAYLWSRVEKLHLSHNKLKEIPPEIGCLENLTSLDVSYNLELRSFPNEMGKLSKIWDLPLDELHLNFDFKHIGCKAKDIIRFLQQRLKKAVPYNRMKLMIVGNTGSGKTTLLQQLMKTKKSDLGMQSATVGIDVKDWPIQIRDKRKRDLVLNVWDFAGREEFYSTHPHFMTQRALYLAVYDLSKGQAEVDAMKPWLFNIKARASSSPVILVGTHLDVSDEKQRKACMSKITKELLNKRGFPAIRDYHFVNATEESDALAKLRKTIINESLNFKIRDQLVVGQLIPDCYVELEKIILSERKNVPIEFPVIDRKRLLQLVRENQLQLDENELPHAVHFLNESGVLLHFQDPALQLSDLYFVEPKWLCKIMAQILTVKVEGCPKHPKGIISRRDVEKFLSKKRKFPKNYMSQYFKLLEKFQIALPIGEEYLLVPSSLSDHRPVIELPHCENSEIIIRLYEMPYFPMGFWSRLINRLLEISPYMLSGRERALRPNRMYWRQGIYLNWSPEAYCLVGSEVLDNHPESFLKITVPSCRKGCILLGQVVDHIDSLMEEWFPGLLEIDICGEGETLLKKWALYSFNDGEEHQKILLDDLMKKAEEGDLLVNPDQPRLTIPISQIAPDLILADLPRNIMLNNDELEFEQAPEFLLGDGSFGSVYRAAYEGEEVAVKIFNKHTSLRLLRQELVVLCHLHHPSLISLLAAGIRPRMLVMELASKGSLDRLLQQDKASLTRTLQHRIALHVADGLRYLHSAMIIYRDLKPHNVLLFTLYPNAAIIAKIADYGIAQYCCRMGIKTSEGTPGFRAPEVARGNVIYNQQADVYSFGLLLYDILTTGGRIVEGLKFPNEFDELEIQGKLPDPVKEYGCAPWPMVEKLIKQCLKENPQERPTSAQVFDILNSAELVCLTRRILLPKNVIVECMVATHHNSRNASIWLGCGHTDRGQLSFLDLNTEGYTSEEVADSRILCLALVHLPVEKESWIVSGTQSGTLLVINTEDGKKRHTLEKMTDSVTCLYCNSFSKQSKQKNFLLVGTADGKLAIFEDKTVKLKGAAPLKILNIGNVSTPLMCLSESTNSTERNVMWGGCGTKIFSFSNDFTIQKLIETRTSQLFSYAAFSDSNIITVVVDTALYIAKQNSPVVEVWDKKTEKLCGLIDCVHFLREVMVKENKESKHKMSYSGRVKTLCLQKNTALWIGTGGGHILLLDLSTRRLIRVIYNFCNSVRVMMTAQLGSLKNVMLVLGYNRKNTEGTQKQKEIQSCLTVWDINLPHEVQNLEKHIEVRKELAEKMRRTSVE

The assay addresses recombinant GST-LRRK2 (wild-type) (Homo sapiens (Human), UniProt Q5S007). Description: LRRK2 TR-FRET peptide assay (in vitro kinase activity), wild-type. Format: biochemical. The following applies: 100 μM ATP, 100 nM biotin-LRRKtide substrate, 10 nM kinase, 60 minutes at room temperature. As to the method: Compounds as described herein (compounds of Formula I, e.g., compounds of the above Examples) are tested for their in vitro kinase activities using various LRRK2 (including LRRK2 G2019S mutant) assays. […] Serially diluted compounds (1% DMSO as co-solvent) were pre-incubated with recombinant GST-LRRK2 (wild-type, or G2019S mutant, Invitrogen) for 15 minutes at room temperature in 384-well Corning black plates. […] The inhibition of each well was calculated using the control and background readings for that plate. IC50 values were determined from dose-response curves using eight concentrations from the serial dilution of the test compounds.
Regarding `CS(=O)(=O)c1ccc(-c2ccc3c(NC4CCC4)c(C(N)=O)nnc3c2)cc1` [Compound 2-19, 4-(cyclobutylamino)-7-(4-(methylsulfonyl)phenyl)cinnoline-3-carboxamide], the IC50 is 0.01 µM. Under `CNC(=O)c1nnc2cc(-c3ccc(S(C)(=O)=O)cc3)ccc2c1NC` [Compound 12-229, N-methyl-4-(methylamino)-7-(4-(methylsulfonyl)phenyl)cinnoline-3-carboxamide] stands greater than 1 µM; under `CC(C)Nc1c(C(N)=O)nnc2cc(-c3cn[nH]c3)ccc12` [Compound 2-53, 4-(isopropylamino)-7-(1H-pyrazol-4-yl)cinnoline-3-carboxamide], 0.009 µM. The figure for `CC(C)Nc1c(C(N)=O)nnc2ccc(-c3ccccc3)cc12` [Compound 2-124, 4-(isopropylamino)-6-phenylcinnoline-3-carboxamide] is 0.63 µM. Consider `COc1ncccc1Nc1ccc2c(NC(C)C)c(C(N)=O)nnc2c1` [Compound 4-190, 4-(isopropylamino)-7-(2-methoxypyridin-3-ylamino)cinnoline-3-carboxamide], for which the IC50 came out at 0.031 µM. The figure for `CC(C)Nc1c(-c2ncco2)nnc2cc(-c3ccc(S(C)(=O)=O)cc3)ccc12` [Compound 3-71, N-isopropyl-7-(4-(methylsulfonyl)phenyl)-3-(oxazol-2-yl)cinnolin-4-amine] is greater than 100 µM.

For the molecule `CN1CCC(Nc2c(C(N)=O)nnc3cc(-c4ccc(S(C)(=O)=O)cc4)ccc23)CC1` [Compound 2-21, 4-(1-methylpiperidin-4-ylamino)-7-(4-(methylsulfonyl)phenyl)cinnoline-3-carboxamide], the IC50 is 0.18 µM.

For the molecule `COc1ccc(S(C)(=O)=O)cc1-c1ccc2c(N[C@H](C)C3CC3)c(C(N)=O)nnc2c1` [Compound 2-115, (R)-4-(1-cyclopropylethylamino)-7-(2-methoxy-5-(methylsulfonyl)phenyl)cinnoline-3-carboxamide], the IC50 is 0.05 µM.

Consider `CS(=O)(=O)c1ccc(-c2ccc3c(NC45CC6CC(CC(C6)C4)C5)c(C(N)=O)nnc3c2)cc1` [Compound 2-88, 4-(1-adamantylamino)-7-(4-(methylsulfonyl)phenyl)cinnoline-3-carboxamide], for which the half-maximal inhibitory concentration (IC50) was determined as 0.42 µM. The figure for `COc1ccc(F)cc1-c1ccc2c(NC(C)C)c(C(N)=O)nnc2c1` [Compound 2-98, 7-(5-fluoro-2-methoxyphenyl)-4-(isopropylamino)cinnoline-3-carboxamide] is 0.59 µM; for `C[C@@H](Nc1c(C#N)nnc2cc(-c3ccc(S(C)(=O)=O)cc3)ccc12)C1CC1` [Compound 2-42, (R)-4-(1-cyclopropylethylamino)-7-(4-(methylsulfonyl)phenyl)cinnoline-3-carbonitrile] it is 0.56 µM.

In the case of `C=C(C)c1ccc2c(NC(C)C)c(C(N)=O)nnc2c1` [Compound 2-99, 4-(isopropylamino)-7-(prop-1-en-2-yl)cinnoline-3-carboxamide], the half-maximal inhibitory concentration (IC50) is 0.076 µM.

`CC(C)Nc1c(C(N)=O)nnc2ccc(-c3ccc(S(C)(=O)=O)cc3)cc12` [Compound 2-125, 4-(isopropylamino)-6-(4-(methylsulfonyl)phenyl)cinnoline-3-carboxamide]: the IC50 worked out at 2.9 µM.

With `CC(C)Nc1c(-c2cccnc2)nnc2cc(-c3ccc(S(C)(=O)=O)cc3)ccc12` [Compound 3-72, N-isopropyl-7-(4-(methylsulfonyl)phenyl)-3-(pyridin-3-yl)cinnolin-4-amine], the concentration for half-maximal inhibition (IC50) was 13 µM. The figure for `COc1ccccc1Nc1ccc2c(NC(C)C)c(C(N)=O)nnc2c1` [Compound 4-189, 4-(isopropylamino)-7-(2-methoxyphenylamino)cinnoline-3-carboxamide] is 0.068 µM; for `CNC(=O)c1nnc2cc(C3CC3)ccc2c1N[C@H](C)C1CC1` [Compound 14-236, (R)-7-cyclopropyl-4-(1-cyclopropylethylamino)-N-methylcinnoline-3-carboxamide] it is 1.95 µM.
